From ChEMBL document CHEMBL1201862, “PubChem BioAssay data set” (2004)
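Grown in 96-well plates, cells were treated for 48 hours with each compound at five concentrations. Insufficient inhibition: endpoint recorded as highest concentration tested. GI50: concentration for 50% inhibition of growth.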 Activity calls are given as the source filed them. Cut-off read from the data, not from the text of the source: active = GI50 up to about 1.1 µM and inactive = higher.

Legend:
Test in all cases: NCI-60 cell line screen, 48 h
DMS-114 = test system: DMS-114
DMS-273 = test system: DMS-273
HOP-18 = test system: HOP-18
KM-20L2 = test system: KM-20L2
LXFL 529 = test system: LXFL 529
M19-MEL = test system: M19-MEL
RXF 631 = test system: RXF 631
XF498 = test system: XF498
MDA-MB-231 = test system: MDA-MB-231

SMILES | GI50 (DMS-114) | GI50 (DMS-273) | GI50 (HOP-18) | GI50 (KM-20L2) | GI50 (LXFL 529) | GI50 (M19-MEL) | GI50 (RXF 631) | GI50 (XF498) | GI50 (MDA-MB-231)
NC(=O)c1csc(C2OC(COP(=O)(O)CP(=O)(O)OCC3OC(n4cnc5c(N)ncnc54)C(O)C3O)C(O)C2O)n1 (configuration not stated) | > 100 µM (inactive) | 85.5 µM (inactive) | > 100 µM (inactive) | > 100 µM (inactive) | > 100 µM (inactive) | > 100 µM (inactive) | > 100 µM (inactive) | > 100 µM (inactive) | 
O=C(O)c1cc(-c2ccc3cc4c(cc3c2)OCO4)nc2ccccc12 |  |  |  |  |  |  |  |  | 31.4 µM (inactive)
CCOC(=O)CCc1ccc(NC(=O)/C=C/c2ccc([N+](=O)[O-])o2)cc1 |  |  |  |  |  |  |  |  | 1.8 µM (inactive)
CCCS(=O)(=O)O |  |  |  |  |  |  |  |  | > 100 µM (inactive)
CCN(CC)C(=O)c1cc(OC(C)C)ccc1-c1c(C)cc(OC(C)C)c(OC)c1OC | 36.5 µM (inactive) | 41.6 µM (inactive) |  | 74 µM (inactive) |  |  |  | 25.8 µM (inactive) | 
O=C1CN2C(Cl)(Cl)C2(c2ccccc2)c2cc(Cl)ccc2N1CC1CC1 (configuration not stated) | 36.2 µM (inactive) | 25.5 µM (inactive) | 23.8 µM (inactive) | 23.4 µM (inactive) | 42.4 µM (inactive) | 35.4 µM (inactive) |  |  | 
COc1ccc(C2N(NC(=O)c3ccncc3)C(=O)CS2(=O)=O)cc1F (configuration not stated) | > 100 µM (inactive) | > 100 µM (inactive) | > 100 µM (inactive) |  | > 100 µM (inactive) |  | > 100 µM (inactive) | > 100 µM (inactive) | 
O=c1ccc2cc3ccc4cccc5ccc(c2o1)c3c45 | 33 µM (inactive) |  | 5.7 µM (inactive) | > 100 µM (inactive) | 45 µM (inactive) | > 100 µM (inactive) | 80 µM (inactive) | 12 µM (inactive) | 
Cc1nc2ccccc2n1Cc1nnc(N)o1 |  |  |  |  |  |  |  |  | > 100 µM (inactive)
CC(=O)N/C(=C\c1ccc(Cc2nc3c([nH]2)C(=O)c2ccccc2C3=O)cc1)c1nc2c([nH]1)C(=O)c1ccccc1C2=O | > 100 µM (inactive) |  |  | > 100 µM (inactive) | > 100 µM (inactive) | > 100 µM (inactive) |  |  | 
Cc1ccc(NC(=S)NNC(=O)c2cc(-c3ccccc3)nc3ccccc23)cc1C |  |  |  |  |  |  |  |  | 20.3 µM (inactive)
COc1ccccc1C(=O)NCC1CCCN2CCCCC12 (configuration not stated) |  |  |  |  |  |  |  |  | > 100 µM (inactive)
O=C(NC1C/C(=N/O)c2c(Br)sc(Br)c21)C(F)(F)F (configuration not stated) |  |  |  |  |  |  |  |  | 13.1 µM (inactive)
CCOC(=O)C1=C(C)N(c2ccc(Cl)cc2)C2(O)C=CC(=O)C3C(=O)N(c4ccccc4)C(=O)C132 (configuration not stated) |  |  |  |  |  |  |  |  | 2.09 µM (inactive)
CC12CCCCC1C(=O)C2(Cl)Cl (configuration not stated) |  | 2.21 µM (inactive) |  |  | 2.28 µM (inactive) |  | 1.92 µM (inactive) | 2.07 µM (inactive) | 
COc1ccc(C(CC(=O)c2ccc(O)cc2)C(C(=O)c2ccc(O)cc2)C(c2ccc(OC)cc2)C2C(=O)NC(=S)NC2=O)cc1 (configuration not stated) |  |  |  |  |  |  |  |  | 20.7 µM (inactive)
CCn1c(=O)nc2n(-c3ccccc3)c3ccccc3nc-2c1=O | 11.1 µM (inactive) | 12.7 µM (inactive) | 61.4 µM (inactive) | 10 µM (inactive) | 28.4 µM (inactive) | 10.6 µM (inactive) |  | 4.83 µM (inactive) | 
COC1CC(OC)C2OC(c3ccccc3)OCC2O1 (configuration not stated) |  |  | > 100 µM (inactive) | > 100 µM (inactive) | > 100 µM (inactive) | > 100 µM (inactive) |  |  | 
CC1(C)N=C(Oc2ccccc2)n2nccc2N1 | > 100 µM (inactive) | 66.7 µM (inactive) | > 100 µM (inactive) | > 100 µM (inactive) | > 100 µM (inactive) | > 100 µM (inactive) |  | > 100 µM (inactive) | 
Cn1ncc2cc3c(Nc4ccc(Cl)cc4)cccc3nc21 | 12.9 µM (inactive) | > 10 µM (inactive) |  | 14.7 µM (inactive) | 15.6 µM (inactive) | 22.1 µM (inactive) | 17.7 µM (inactive) | 8.11 µM (inactive) | 
Cc1ccc(CCC(=O)C(=O)O)s1 | > 100 µM (inactive) | > 100 µM (inactive) | > 100 µM (inactive) | > 100 µM (inactive) | > 100 µM (inactive) | > 100 µM (inactive) | > 100 µM (inactive) | > 100 µM (inactive) | 
NC1CCCCC1 | > 56.2 µM (inactive) | 189 µM (inactive) | < 0.0562 µM (active) | 192 µM (inactive) |  | 187 µM (inactive) |  |  | 
CO[C@H]1C=C[C@@]23c4cc5c(cc4CO[C@]2(O)CN(C)[C@H]3C1)OCO5 |  |  |  |  |  |  |  |  | > 100 µM (inactive)

SMILES | GI50 (DMS-114) | GI50 (DMS-273) | GI50 (HOP-18) | GI50 (KM-20L2) | GI50 (LXFL 529) | GI50 (M19-MEL) | GI50 (RXF 631) | GI50 (XF498) | GI50 (MDA-MB-231)
CC1C(=O)N(c2ccccc2)NC12CCCc1ccccc12 (configuration not stated) |  |  |  |  |  |  |  |  | > 100 µM (inactive)
C=CC(=O)NC(O)(C(=O)OCC)C(F)(F)F (configuration not stated) |  |  |  |  |  |  |  |  | > 100 µM (inactive)
O=C1CC(CC(OCc2ccccc2)C(COCc2ccccc2)OCc2ccccc2)CC(=O)N1 (configuration not stated) |  |  |  |  |  |  |  |  | 50.2 µM (inactive)
O=C1C=CC=C/C1=C1/SC(c2ccccc2)=C(O)N1c1ccccc1 | > 100 µM (inactive) | > 100 µM (inactive) |  | > 100 µM (inactive) | > 100 µM (inactive) | > 100 µM (inactive) |  |  | 
CN(C)c1ccc(/C=C2/SC(=S)NC2=O)cc1 |  |  |  |  |  |  |  |  | 90.8 µM (inactive)
Cc1[nH]c2ncn(/N=C/c3ccccc3O)c(=N)c2c1Cc1ccccc1 |  |  |  |  |  |  |  |  | 24.9 µM (inactive)
O=C1CCC(c2ccccc2)=NN1c1nsc2ccccc12 | 62.7 µM (inactive) | 95.9 µM (inactive) | 19.6 µM (inactive) | > 100 µM (inactive) | > 100 µM (inactive) | > 100 µM (inactive) |  |  | 
COc1ccc(Cc2nccc3cc(OC)c(OC)cc23)cc1 | 29.7 µM (inactive) |  |  | > 100 µM (inactive) | 28 µM (inactive) | 98.4 µM (inactive) |  | 23.8 µM (inactive) | 
Cc1cc2c(ccc[n+]2[O-])[n+]([O-])c1 | > 100 µM (inactive) | > 100 µM (inactive) |  | > 100 µM (inactive) | > 100 µM (inactive) | > 100 µM (inactive) |  | > 100 µM (inactive) | 
CCCCC1(N=[N+]=[N-])C(=O)c2cccc3c2N(CCC3)C1=O (configuration not stated) |  |  |  |  |  |  |  |  | > 100 µM (inactive)
Nc1cc2c(nc3c4ccccc4c(N)cc3[n+]2-c2cccc3ccccc23)c2ccccc12.Nc1cc2c(nc3c4ccccc4ccc3[n+]2-c2cccc3ccccc23)c2ccccc12 |  |  |  |  |  |  |  |  | 0.276 µM (active)
NC(=O)Cc1nc2c(O)ncnc2n1C1OC(CO)C(O)C1O (configuration not stated) |  |  |  |  |  |  |  |  | > 100 µM (inactive)
COc1cc([C@@H]2c3cc4c(cc3[C@@H](c3c(O)cc(O)c5c3O[C@H](c3ccc(O)c(O)c3)[C@@H](O)C5)[C@H]3COC(=O)[C@H]23)OCO4)cc(OC)c1O |  |  |  |  |  |  |  |  | > 100 µM (inactive)
COc1ccc(/C=N/n2c(C)nc3c(sc(=S)n3-c3ccccc3)c2=O)cc1 |  |  | > 100 µM (inactive) |  | 49 µM (inactive) | 63.2 µM (inactive) |  |  | 
CC1[C@@H]2CC=C3C4CCC5Cc6nc7c(nc6C[C@@]5(C)C4CC(=O)[C@]32CO[C@@]1(O)C(O)CC(C)(C)O)CC1CCC2C3=C[C@H]4O[C@@]5(O[C@@](C)(CO)C[C@@H]5O)C(C)[C@@]4(O)[C@]3(C)[C@@H](O)CC2[C@]1(C)C7 (some centres not stated) | 0.000513 µM (active) | < 0.00036 µM (active) | 0.269 µM (active) | 0.0069 µM (active) |  | 0.237 µM (active) |  | 0.00242 µM (active) | 
CC(C)(C)OC(=O)N1C2CCCC23O[C@@H]1c1cc2c(cc1C3=O)OCO2 (some centres not stated) | 19.9 µM (inactive) | 6.27 µM (inactive) |  |  | 44.3 µM (inactive) | 26.6 µM (inactive) | 27.2 µM (inactive) | 26.6 µM (inactive) | 
C=C1C(=O)C23C(O)CC4C(C)(C)CCC(O)C4(C)C2CC(OC(C)=O)C1[C@H]3O (some centres not stated) |  | 1.65 µM (inactive) | 2.27 µM (inactive) | 3.15 µM (inactive) | 1.07 µM (active) | 1.61 µM (inactive) | 4.8 µM (inactive) | 1.91 µM (inactive) | 3.27 µM (inactive)
CCCCCCCCCCCCCCCC[N+](C)(C)Cc1ccc(C[N+](C)(C)CCCCCCCCCCCCCCCC)cc1 | 1.85 µM (inactive) | 1.98 µM (inactive) | 1.67 µM (inactive) | 3.62 µM (inactive) | 8.09 µM (inactive) | 2.67 µM (inactive) | 2.19 µM (inactive) |  | 
Clc1ccc(-c2nnc(-c3nsc4ccccc34)o2)cc1 | 65.6 µM (inactive) | 26.6 µM (inactive) |  | 46.2 µM (inactive) | 71 µM (inactive) | > 100 µM (inactive) |  |  | 
O=C(O)c1ccc(NS(=O)(=O)Cc2ccccc2)cc1 |  |  |  |  |  |  |  |  | > 100 µM (inactive)
COCCO [2-METHOXYETHANOL] |  |  |  | > 100 µM (inactive) |  |  |  |  | 
NC(Cc1c[nH]c2ccccc12)C(=O)O (stereo not drawn) [DL-TRYPTOPHAN] | > 300 µM (inactive) | > 300 µM (inactive) | 54.1 µM (inactive) | > 300 µM (inactive) |  | > 300 µM (inactive) |  |  | 
Nc1n[nH]c(N)n1 [GUANAZOLE] | 1800 µM (inactive) | 914 µM (inactive) | 5610 µM (inactive) | 7890 µM (inactive) |  | > 10000 µM (inactive) |  | 237 µM (inactive) | > 10000 µM (inactive)
